# Where two headings read alike, the source gives them in different places.
# Columns and labels:
# [1] = tested on: C. albicans SC5314 + S. epidermidis; experiment: mixed C. albicans/S. epidermidis biofilm assay, selective plating; format: cell-based, Candida albicans; Staphylococcus epidermidis; details: for activity at 100 µM: 100 μM (Table 5); for activity at 25 µM: 25 μM (Table 5)
# Experimental: The concentrations 25 μM (0.0625% DMSO or ethanol) and 100 μM (0.25% DMSO or ethanol) were tested. After 24 h of incubation at 37° C., biofilms were washed with PBS and fresh medium with or without compounds was added. After further incubation for 48 h at 37° C., the biofilms were washed with PBS after which the cells were re-suspended in 100 μl of PBS by scraping off, sonication (1 min, 45 kHz, USC300-T; VWR, Radnor, Pa., USA) and vigorously pipetting up-and-down. Finally, the biofilm cells were diluted in PBS and plated on YPD agar plates containing 100 mg/L ampicillin and TSA plates containing 25 mg/L amphotericin B, to determine the number of fungal and bacterial CFUs after 2 days of incubation at 37° C., respectively. The percentage of C. albicans SC5314 and S. epidermidis cells was determined relative to the DMSO or ethanol control treatment.
# [2] = tested on: E. coli TG1 + P. aeruginosa PA14; experiment: mixed E. coli/P. aeruginosa biofilm assay, crystal violet; format: cell-based; details: for IC50: 37° C. (Table 3)
# Experimental: Overnight cultures of E. coli TG1 and P. aeruginosa PA14, were diluted 1/100 in the same vial of TSB 1/20 to form a mixed culture suspension.
# [3] = tested on: bone-marrow derived mesenchymal stem cells (MSC); experiment: mammalian-cell viability assay, trypan blue staining; format: cell-based; details: 12.5 μM, 6 days exposure
# Experimental: (§1) Cell viability of two human primary cell types, namely, osteoblasts (OB) and bone-marrow derived mesenchymal stem cells (MSC) was tested according to the ISO 10993-5 standard, as previously described. Briefly, cells were seeded in 96-well tissue culture test plates (TPP, Switzerland) at 5×10^3 cells/cm^2 in Advanced DMEM cell culture media supplemented with 10% serum, 1× GlutaMAX, 0.05 mg/mL Gentamycin, and were allowed to attach overnight. The next day, the cells were exposed to (i) cell culture medium and medium with the corresponding control (0.5% ethanol or DMSO) (negative controls), (ii) medium with 0.05% phenol (cytotoxic control), and (iii) medium with compounds (12.5 μM) and incubated for 2 h, 48 h and 6 days (8 repeats for each condition). At each time-point the numbers of viable and dead cells were determined directly by trypan blue staining, and indirectly by measuring the metabolic activity with MTT (3-(4,5-dimethylthiazol-2-yl)-2,5-diphenyltetrazolium bromide) staining.
# (§2) The medium was removed from the wells, and 1/3 trypan blue in Dulbecco's modified Eagle's medium (DMEM) was added to the cells, incubated for 3 min, after which trypan blue was removed and DMEM medium was added to the wells. In each of four wells, two microscopy fields were counted for viable (transparent) and dead (blue) cells.
# [4] = tested on: osteoblasts (OB); experiment: as above; format: cell-based; details: 12.5 μM; for proliferation (in words): 6 days exposure
# Experimental: as §1, §2
# [5] = tested on: E. coli TG1; experiment: static peg (Calgary Biofilm Device) anti-biofilm assay, crystal violet and OD600; details: for IC50: 37° C.
# [6] = tested on: S. liquefaciens MG44; experiment: as above; format: cell-based, Serratia liquefaciens; details: 25° C.
# [7] = tested on: C. albicans SC5314; experiment: inhibition of C. albicans biofilms, cell titer blue (CTB) quantification; format: cell-based, Candida albicans; details: for IC50: biofilm formation, 37° C., read-out: BIC50; for anti-biofilm activity (in words): monospecies biofilm, novel compounds: highest concentration tested 100 μM
# Experimental: The potential of the compounds to prevent C. albicans SC5314 biofilm formation was assessed using the cell titer blue (CTB) quantification method (26). For the CTB method, an overnight culture of C. albicans SC5314 was washed with PBS and a cell suspension of 10^6 cells/ml (OD600=0.1) was prepared in RPMI 1640 medium (pH 7.0). […] After 16 h of static incubation at 37° C., biofilms were washed and quantified with CTB as described previously.
# [8] = tested on: S. aureus ATCC6538 + S. epidermidis; experiment: mixed S. aureus/S. epidermidis biofilm assay, crystal violet; format: cell-based; details: 37° C. (Table 3)
# Experimental: Overnight cultures of S. aureus ATCC6538 and S. epidermidis were grown in LB medium and were diluted 1/200 in the same vial of TSB to form a mixed culture suspension.
# [9] = tested on: S. aureus ATCC6538; experiment: static peg (Calgary Biofilm Device) anti-biofilm assay, crystal violet and OD600; details: 37° C.
# [10] = tested on: S. aureus SH1000; experiment: as above; details: for IC50: 37° C.
# [11] = tested on: S. epidermidis; experiment: as above; details: for IC50: 37° C.
# [12] = tested on: P. gingivalis ATCC33277; experiment: as above
# [13] = tested on: P. aeruginosa PA14; experiment: as above
# [14] = tested on: S. Typhimurium ATCC14028; experiment: as above
# [15] = tested on: B. cepacia LMG1222T; experiment: as above; details: for IC50: 25° C.
# [16] = tested on: bone-marrow derived mesenchymal stem cells (MSC); experiment: metabolic activity, MTT staining; format: cell-based; details: 12.5 μM, 6 days treatment
# Experimental: as §1
# (§3) The medium was removed from the wells and 100 μl of medium, supplemented with 10% serum and 0.5 mg/mL MTT was added to the cells. The cells were incubated overnight at 37° C. and 5% CO2. The next day the medium with MTT was removed and 100 μl acidic isopropanol was added. The cells were then centrifuged at 2300 g and 50 μl of the supernatant was transferred to a new 96-well plate. The absorbance was measured at 570 nm and the background was measured at 660 nm. Four wells per condition were examined.
# [17] = tested on: osteoblasts (OB); experiment: metabolic activity, MTT staining; format: cell-based; details: 12.5 μM, 6 days treatment
# Experimental: as §1, §3
# [18] = tested on: bone-marrow derived mesenchymal stem cells (MSC); experiment: osteogenic differentiation, calcium and DNA assay; format: cell-based, human; details: 12.5 μM, calcium content normalized by DNA, versus solvent control
# Experimental: (§4) The effect on osteogenic differentiation potential was assessed as previously described. Only the substances that allowed survival of the cells for more than 3 weeks, which is the time needed for mature osteogenic differentiation, were tested. Briefly, osteoblasts and bone-marrow derived mesenchymal stem cells were cultured in a positive solvent control (osteogenic medium with 0.5% DMSO or ethanol background), a negative control (medium without osteogenic supplements) and treated samples (osteogenic medium, 0.5% DMSO or ethanol background and 12.5 μM of test compound) with four repeats per condition. Mesenchymal stem cells and osteoblast cell cultures were harvested after 3 or 5 weeks, respectively, for the calcium and DNA assay.
# (§5) Calcium deposition of osteoblasts and mesenchymal stem cells was measured with the Calcium CPC LiquiColor test (Stanbio Laboratory, Boerne, Tex.) as previously described. Briefly, cell cultures were extracted with 5% trichloroacetic acid (500 μl per sample), O-cresolphtalein complex was added, and the calcium content was determined spectrophotometrically at 550 nm. DNA content was determined as previously described. DNA values were used to normalize the calcium content. Four wells per condition were examined, and two samples from each well were taken for each assay.
# [19] = tested on: osteoblasts (OB); experiment: osteogenic differentiation, calcium and DNA assay; format: cell-based, human; details: 12.5 μM, calcium content normalized by DNA, versus solvent control
# Experimental: as §4, §5
# [20] = C. albicans in mixed biofilm with S. epidermidis, read-out: CFUs % survival C.a.
# [21] = S. epidermidis in mixed biofilm with C. albicans, read-out: CFUs % survival Se.
# [22] = biofilm formation, read-out: BIC50
# [23] = planktonic growth, read-out: IC50
# [24] = mixed biofilm formation, read-out: BIC50
# [25] = planktonic growth of mixed culture, read-out: IC50
# [26] = read-out: BIC50, biofilm formation
# [27] = read-out: BIC50, biofilm formation, 37° C.
# [28] = read-out: BIC50, biofilm formation, 25° C.
# [29] = S. epidermidis in mixed biofilm with C. albicans, read-out: CFUs % survival S.c.
compound,measurement,setting,value
"CCCCCCCCn1c(-c2ccccc2)cnc1NCC(C)C [Compound 8a, N-isobutyl-1-octyl-5-phenyl-1H-imidazol-2-amine]",activity at 100 µM,[1]; [20],1%
same,activity at 100 µM,[1]; [21],1%
same,inhibition of the mixed biofilm P. aeruginosa/E. coli (in words),[2],strongly inhibited
same,proliferation (in words),[3],slightly reduced
same,proliferation (in words),[4],slightly reduced
same,anti-biofilm activity (in words),[5]; biofilm at 37° C.,showed activity
same,anti-biofilm activity (in words),[5]; biofilm cells at 25° C.,potent activity
CCCCNc1ncc(-c2ccc(Br)cc2)[nH]1 [Compound 4],IC50,[6]; [22],4.4 µM
same,IC50,[6]; [23],118 µM
same,IC50,[7],66.7 µM
same,IC50,[2]; [24],17.8 µM
same,IC50,[2]; [25],> 400 µM
same,IC50,[8]; [24],6.8 µM
same,IC50,[8]; [25],~118 µM
same,IC50,[9]; planktonic growth,60.1 µM
same,IC50,[9]; [26],~12.3 µM
same,IC50,[10]; planktonic growth,89.4 µM
same,IC50,[10]; [26],66.5 µM
same,IC50,[11]; planktonic growth,54.4 µM
same,IC50,[11]; [26],> 400 µM
same,IC50,"[12]; planktonic growth, 37° C.",8.2 µM
same,IC50,[12]; [27],3.7 µM
same,IC50,[5]; planktonic growth,23 µM
same,IC50,[5]; [26],84.7 µM
same,IC50,"[13]; planktonic growth, 37° C.",> 400 µM
same,IC50,[13]; [28],9.8 µM
same,IC50,[13]; [27],> 400 µM
same,IC50,[14]; [28],7.1 µM
same,IC50,[15]; planktonic growth,> 400 µM
same,IC50,[15]; [26],189 µM
"CCCCCCCCn1c(-c2ccc(Cl)c(Cl)c2)cnc1NC1CCCC1 [Compound 8h, 5-(3,4-dichlorophenyl)-N-cyclopentyl-1-octyl-1H-imidazol-2-amine]",anti-biofilm activity (in words),[7],not active
same,activity at 25 µM,[1]; [20],6.7%
same,activity at 100 µM,[1]; [20],3.5%
same,activity at 25 µM,[1]; [29],2%
same,activity at 100 µM,[1]; [21],2.2%
same,proliferation (in words),[4],increase in proliferation
same,metabolic activity compared to the solvent control (in words),[16],increased
same,metabolic activity compared to the solvent control (in words),[17],increased
same,calcium deposition (in words),[18],induced the calcium deposition
same,calcium deposition (in words),[19],induced the calcium deposition
"CCCCCCCCn1c(-c2ccc(Br)cc2)cnc1NCC(C)C [Compound 8c, 5-(4-bromophenyl)-N-isobutyl-1-octyl-1H-imidazol-2-amine]",anti-biofilm activity (in words),[7],not active
same,effect on the C. albicans/S. epidermidis mixture (in words),[1],only reduced C. albicans
same,activity at 25 µM,[1]; [20],3.2%
same,activity at 100 µM,[1]; [20],8.4%
same,proliferation (in words),[4],increase in proliferation
same,cell viability (in words),"[4]; 6 days of exposure, trypan blue",very slightly reduced viability
same,metabolic activity compared to the solvent control (in words),[16],increased
same,metabolic activity compared to the solvent control (in words),[17],increased
same,calcium deposition (in words),[18],induced the calcium deposition
same,calcium deposition (in words),[19],induced the calcium deposition
Brc1ccc(-c2cnc(NCCn3cc(C4CC4)nn3)[nH]2)cc1 [Compound 6],IC50,[6]; [22],63.3 µM
same,IC50,[6]; [23],> 400 µM
same,IC50,[7],> 400 µM
same,anti-biofilm activity (in words),[7],No activity
same,IC50,[2]; [24],34.6 µM
same,IC50,[2]; [25],> 400 µM
same,IC50,[8]; [24],33.9 µM
same,IC50,[8]; [25],~392 µM
same,IC50,[9]; planktonic growth,> 400 µM
same,IC50,[9]; [26],75.2 µM
same,anti-biofilm activity (in words),[10]; monospecies biofilm,No activity
same,IC50,[10]; planktonic growth,> 400 µM
same,IC50,[10]; [26],> 400 µM
same,anti-biofilm activity (in words),[11]; monospecies biofilm,No activity
same,IC50,[11]; planktonic growth,> 400 µM
same,IC50,[11]; [26],> 400 µM
same,IC50,"[12]; planktonic growth, 37° C.",19.5 µM
same,IC50,[12]; [26],18.1 µM
same,IC50,[5]; planktonic growth,183 µM
same,IC50,[5]; [26],~192 µM
same,anti-biofilm activity (in words),"[13]; monospecies biofilm, 37° C.",No activity
same,IC50,"[13]; planktonic growth, 25° C.",> 400 µM
same,IC50,"[13]; planktonic growth, 37° C.",> 400 µM
same,IC50,[13]; [28],71.6 µM
same,IC50,[13]; [27],> 400 µM
same,IC50,"[14]; planktonic growth, 25° C.",2.4 µM
same,IC50,[14]; [26],2 µM
same,anti-biofilm activity (in words),[15]; monospecies biofilm,No activity
same,IC50,[15]; planktonic growth,> 400 µM
same,IC50,[15]; [26],> 400 µM
"CCCCCCCCn1c(-c2ccccc2)cnc1NC1CCCC1 [Compound 8e, N-cyclopentyl-1-octyl-5-phenyl-1H-imidazol-2-amine]",activity at 25 µM,[1]; [20],10%
same,activity at 100 µM,[1]; [20],2.5%
same,activity at 100 µM,[1]; [21],0%
same,inhibition of the mixed biofilm P. aeruginosa/E. coli (in words),[2],at higher concentrations
same,proliferation (in words),[3],slightly reduced
same,proliferation (in words),[4],slightly reduced
same,anti-biofilm activity (in words),[5]; biofilm at 37° C.,showed activity
same,anti-biofilm activity (in words),[5]; biofilm cells at 25° C.,potent activity
"CCCCCCCCn1c(-c2ccc(Cl)cc2)cnc1NCC(C)C [Compound 8b, 5-(4-chlorophenyl)-N-isobutyl-1-octyl-1H-imidazol-2-amine]",activity at 25 µM,[1]; [20],2%
same,activity at 25 µM,[1]; [29],6.1%
same,activity at 100 µM,[1]; [21],0.7%
same,calcium deposition (in words),[18],induced the calcium deposition
same,calcium deposition (in words),[19],induced the calcium deposition
same,anti-biofilm activity (in words),[5]; biofilm cells at 25° C.,potent activity
"CCCCCCCCn1c(-c2ccc(Cl)cc2)cnc1NC1CCCC1 [Compound 8f, 5-(4-chlorophenyl)-N-cyclopentyl-1-octyl-1H-imidazol-2-amine]",activity at 25 µM,[1]; [20],2.9%
same,activity at 100 µM,[1]; [20],7.2%
same,activity at 25 µM,[1]; [29],2.5%
same,activity at 100 µM,[1]; [21],0.3%
same,inhibition of the mixed biofilm P. aeruginosa/E. coli (in words),[2],at higher concentrations
same,proliferation (in words),[3],slightly reduced
same,anti-biofilm activity (in words),[5]; biofilm cells at 25° C.,potent activity
